These results are taken from patent US20200131473A1, “METHOD OF GENERATING 2 CELL-LIKE STEM CELLS” (IFOM FONDAZIONE ISTITUTO FIRC DI ONCOLOGIA MOLECOLARE, priority 2017, published 2020).

Assay type in all cases: cell-based, mouse
The test system of data set [1] is C57BL/6N morulae. The data set is described as follows: Viability of APH-treated embryos. As to conditions: APH 1.5 μM in KSOM for 4 hrs.
For data set [2], the system named is pZscan4-Emerald ESCs. The data set is described as follows: FACS for Emerald-GFP and CASPASE-3 (apoptosis). As to conditions: mostly at high concentration. The source says:
(§1) ESCs were fixed and permeabilized using Cytoperm/Cytofix kit (BD Biosciences), and subsequently stained for one hour at room temperature with Alexa Fluor® 647 anti-H2AX-Phosphorylated (Ser139) antibody (Biolegend) or P-CHK1-PE conjugated antibody (cell signaling 12268). Cells were washed and acquired on a FACS Calibur instrument or Attune NxT (Thermo Fisher Scientific). For Emerald-GFP acquisition, cells were trypsinized, collected and subsequently acquired without fixation. Cell cycle profiles were acquired after incubation with DAPI (4′,6-diamidino-2-phenylindole) overnight. For Caspase3 FACS analysis after fixation and permeabilization, Cleaved Caspase3 antibody were used for one hr at RT followed by washes and one hr incubation in donkey anti rabbit secondary antibody. […]

Data set [3] concerns pZscan4-Emerald ESCs. Nature of the data set: Cell cycle analysis of ESCs. As to conditions: APH 0.3 μM and 6 μM.
Excerpt: as §1

Data set [4] relates to ATR Seckel and WT ESCs. The data set is described as follows: In-vitro differentiation toward giant trophoblast-like cells. As for the experimental part:
RNA was extracted using RNeasy mini kit (QIAGEN), quantified by NanoDrop spectrophotometer and cDNA was prepared from 2 μg total DNA-depleted RNA using SuperScript™ III reverse transcriptase kit (Invitrogen cat #18080-093) following manufacturer's instructions. qPCR assay performed based on standard protocol using 10× SsoFast™ EvaGreen® Supermix or later 1× LightCycler 480 SYBR Green I Master (Roche, 04707516001), 0.5 μM primer mix and 5 ng of cDNA. GAPDH was used as internal control to normalise the qPCR data following ΔΔCt method, 10 μM primer mix and a total amount of cDNA corresponding to 5 ng of starting RNA for each reaction.
Then, cells were incubated with primary antibody at 4° C. overnight, followed by washes and incubation with secondary antibody for an hour at room temperature. Next samples were mounted and images were acquired with wide field florescent microscope. Antibodies used in this study were Anti Oct-3/4 (Santa Cruz sc-5279), Anti Nanog (Abcam ab80892) and Plet-1 antibody (Nordic MUbio MUB1512P) and), Anti-GFP (Abcam, ab5450). Acquired figures were analyzed with ImageJ software. […]

With `C[C@@]1(CO)[C@H](O)CC[C@@]2(C)[C@H]1CC[C@H]1C[C@@H]3C[C@@]12CC[C@]3(O)CO` [APH, aphidicolin], the “viability of the embryos” value in data set [1] is on record as “no effect on the viability of the embryos”. The “cell apoptosis (CASPASE-3)” value in data set [2] is “mild cell apoptosis”. The “G2/M population in culture” value in data set [3] was “neither at low (0.3 μM) nor at high (6 μM) concentrations could increase G2/M population”. For the same compound, the “number of giant trophoblast-like cells” value in data set [4] (APH treatment) was “more than three folds”. In addition, the “giant trophoblast cell specific marker Prl2c2 (qPCR) in ATR activated condition” value in data set [4] (wild type ESC treated with APH) is reported as “highest expression”.
